From patent US7524823B2, “Macrolides” (Basilea Pharmaceutica AG, priority 2005, dated 2009)
In brackets after ≈: the same amount, converted by molar mass. Read-outs that look alike come from different tables or passages of the source. Each block holds one compound with its values, some of them ahead of it.

How the values were obtained:
Type in all cases: cell-based
[1] = tested on: Escherichia coli ATCC 25922; experiment: MIC by broth microdilution (CAMHB, NCCLS); conditions: code C: Escherichia coli ATCC 25922
Method: (§1) MIC values for non-anaerobes were obtained by broth microdilution using CAMHB (BBL) according to NCCLS guidelines (National Committee for Clinical Laboratory Standards. Methods for dilution antimicrobial susceptibility tests for bacteria that grow aerobically, 5th ed. Approved standard M7-A6. NCCLS, Wayne, Pa., 2003). Drugs were dissolved in DMSO prior to dispensing into 96-well microtitre plates; the concentration of DMSO in assay wells never exceeded 2% (v/v). CAMHB was supplemented with 5% (v/v) horse serum (Sigma, cat. no. H-1270) in lieu of laked horse blood for cultivation of Streptococcus pneumoniae, and with 5% (v/v) Fildes enrichment (BBL, cat. no. 220810) supernate in lieu of Haemophilus Test Medium and additives for cultivation of Haemophilus influenzae (Pankuch G A, Hoellman D B, Lin G, Bajaksouzian S, Jacobs M R, Appelbaum P C. Activity of HMR 3647 compared to those of five agents against Haemophilus influenzae and Moraxella catarrhalis by MIC determination and time-kill assay. Antimicrob. Agents Chemother. November 1998; 42(11): 3032-4). Activities expressed as the minimal inhibitory concentrations (MICs) (μg/ml) are given in the following Table 3, and the microorganisms used for testing are listed in Table 2 below.

[2] = tested on: Staphylococcus aureus 1086; experiment: MIC by broth microdilution (CAMHB, NCCLS); conditions: code B: Staphylococcus aureus 1086
Method: as §1

[3] = tested on: Staphylococcus aureus ATCC 29213; experiment: MIC by broth microdilution (CAMHB, NCCLS); conditions: code A: Staphylococcus aureus ATCC 29213
Method: as §1

[4] = tested on: Streptococcus pneumoniae 1/1; experiment: MIC by broth microdilution (CAMHB + 5% horse serum, NCCLS); conditions: code D: Streptococcus pneumoniae 1/1
Method: as §1

[5] = tested on: Streptococcus pneumoniae SL199T; experiment: as above; conditions: code E: Streptococcus pneumoniae SL199T
Method: as §1

[6] = tested on: Streptococcus pneumoniae Tupelo; experiment: as above; conditions: code F: Streptococcus pneumoniae Tupelo
Method: as §1

[7] = tested on: Haemophilus influenzae 12214; experiment: MIC by broth microdilution (CAMHB + 5% Fildes enrichment, NCCLS); conditions: code G: Haemophilus influenzae 12214
Method: as §1

[8] = tested on: Haemophilus influenzae QK50; experiment: as above; conditions: code H: Haemophilus influenzae QK50
Method: as §1

[9] = tested on: Propionibacterium acnes EG7NS; experiment: MIC by anaerobic broth microdilution (WCB, NCCLS); conditions: code I: Propionibacterium acnes EG7NS, anaerobic, 35-37° C., 48 h
Method: (§2) MIC values towards strains of propionibacteria were obtained by broth microdilution using WCB (Anaerobe Broth MIC, Difco) according to NCCLS guidelines (National Committee for Clinical Laboratory Standards. Methods for anti-microbial susceptibility testing of anaerobic bacteria, 5th ed.; approved standard. NCCLS publication no. M11-A5. NCCLS, Wayne, Pa., 2001). Microtitre plates were loaded into 7-L GENbox anaerobic incubation jars (BioMérieux, cat. no. 96 128) fitted with anaerobic atmosphere generators (BioMérieux, cat. no. 96 124) and a Dry Anaerobic Indicator Strip (BBL, cat. no. 271051). Under these conditions, an O2 concentration <0.1% was achieved by 2.5 h, and a CO2 concentration >15% by 24 h. MIC values were read after incubation at 35-37° C. for 48 h (Table 3).

[10] = tested on: Propionibacterium acnes SW101T; experiment: MIC by anaerobic broth microdilution (WCB, NCCLS); conditions: code K: Propionibacterium acnes SW101T, 35-37° C., 48 h
Method: as §2

[11] = Cutibacterium acnes, read-out: MIC

SMILES: CN(C)[C@@H]1C(O)=C(C(N)=O)C(=O)[C@@]2(O)C(O)=C3C(=O)c4c(O)cccc4[C@@](C)(O)[C@H]3C[C@@H]12 [Tetracycline, reference compound]
MIC [9, 11]: ≤ 0.06 µg/mL
MIC [10, 11]: 32 µg/mL (≈ 72 µM)

SMILES: CC[C@H]1OC(=O)[C@H](C)[C@@H](O[C@H]2C[C@@](C)(OC)[C@@H](O)[C@H](C)O2)[C@H](C)[C@@H](O[C@@H]2O[C@H](C)C[C@H](N(C)C)[C@H]2O)[C@](C)(OC)C[C@@H](C)C(=O)[C@H](C)[C@H]2[C@H](SCCCn3cnc4cccnc43)C(=O)O[C@@]21C [Example 12]
MIC [1]: >32 µg/mL
MIC [2]: 8 µg/mL (≈ 8.31 µM)
MIC [3]: 2 µg/mL (≈ 2.08 µM)
MIC [4]: <=0.06 μg/ml
MIC [5]: 0.5 µg/mL
MIC [6]: 1 µg/mL
MIC [7]: 4 µg/mL
MIC [8]: 8 µg/mL
MIC [9]: <=0.06 μg/ml
MIC [10]: 8 µg/mL (≈ 8.31 µM)

SMILES: CC[C@H]1OC(=O)[C@H](C)[C@@H](O[C@H]2C[C@@](C)(OC)[C@@H](O)[C@H](C)O2)[C@H](C)[C@@H](O[C@@H]2O[C@H](C)C[C@H](N(C)C)[C@H]2O)[C@](C)(OC)C[C@@H](C)C(=O)[C@H](C)[C@H]2[C@H](SCC(=O)Nc3ccc(F)cc3F)C(=O)O[C@@]21C [Example 23]
MIC [1]: >32 µg/mL
MIC [2]: 32 µg/mL (≈ 32.9 µM)
MIC [3]: 2 µg/mL (≈ 2.06 µM)
MIC [4]: <=0.06 μg/ml
MIC [5]: 2 µg/mL
MIC [6]: 2 µg/mL
MIC [7]: 4 µg/mL
MIC [8]: 4 µg/mL
MIC [9]: <=0.06 μg/ml
MIC [10]: 32 µg/mL (≈ 32.9 µM)

SMILES: CC[C@H]1OC(=O)[C@H](C)[C@@H](O[C@H]2C[C@@](C)(OC)[C@@H](O)[C@H](C)O2)[C@H](C)[C@@H](O[C@@H]2O[C@H](C)C[C@H](N(C)C)[C@H]2O)[C@](C)(OC)C[C@@H](C)C(=O)[C@H](C)[C@H]2[C@H](SCCn3cnc4cncnc43)C(=O)O[C@@]21C [Example 20]
MIC [1]: >32 µg/mL
MIC [2]: >32 µg/mL
MIC [3]: 1 µg/mL (≈ 1.05 µM)
MIC [4]: <=0.06 μg/ml
MIC [5]: 0.5 µg/mL
MIC [6]: 1 µg/mL
MIC [7]: 1 µg/mL
MIC [8]: 1 µg/mL
MIC [9]: <=0.06 μg/ml
MIC [10]: 8 µg/mL (≈ 8.42 µM)

SMILES: CC[C@H]1OC(=O)[C@H](C)[C@@H](O[C@H]2C[C@@](C)(OC)[C@@H](O)[C@H](C)O2)[C@H](C)[C@@H](O[C@@H]2O[C@H](C)C[C@H](N(C)C)[C@H]2O)[C@](C)(OC)C[C@@H](C)C(=O)[C@H](C)[C@H]2[C@H](SCC(=O)Nc3cccc4cccnc34)C(=O)O[C@@]21C [Example 25]
MIC [1]: >32 µg/mL
MIC [2]: 16 µg/mL (≈ 16.2 µM)
MIC [3]: 1 µg/mL (≈ 1.01 µM)
MIC [4]: <=0.06 μg/ml
MIC [5]: 1 µg/mL
MIC [6]: 0.5 µg/mL
MIC [7]: 4 µg/mL
MIC [8]: 4 µg/mL
MIC [9]: <=0.06 μg/ml
MIC [10]: 4 µg/mL (≈ 4.05 µM)

SMILES: CC[C@H]1OC(=O)[C@H](C)[C@@H](O[C@H]2C[C@@](C)(OC)[C@@H](O)[C@H](C)O2)[C@H](C)[C@@H](O[C@@H]2O[C@H](C)C[C@H](N(C)C)[C@H]2O)[C@](C)(OC)C[C@@H](C)C(=O)[C@H](C)[C@H]2[C@H](SCCCc3ccc4ncccc4c3)C(=O)O[C@@]21C [Example 3]
MIC [1]: >32 µg/mL
MIC [2]: 8 µg/mL (≈ 8.22 µM)
MIC [3]: 4 µg/mL (≈ 4.11 µM)
MIC [4]: 0.25 µg/mL
MIC [5]: 2 µg/mL
MIC [6]: 8 µg/mL
MIC [7]: >32 µg/mL
MIC [8]: 16 µg/mL
MIC [9]: 0.25 µg/mL (≈ 0.257 µM)
MIC [10]: 16 µg/mL (≈ 16.4 µM)

SMILES: CCC[C@@H]1C[C@@H](C(=O)N[C@@H]([C@H]2O[C@H](SC)[C@H](O)[C@@H](O)[C@H]2O)[C@H](C)Cl)N(C)C1 [Clindamycin, reference compound]
MIC [9, 11]: ≤ 0.06 µg/mL
MIC [10, 11]: > 32 µg/mL

SMILES: CC[C@H]1OC(=O)[C@H](C)[C@@H](O[C@H]2C[C@@](C)(OC)[C@@H](O)[C@H](C)O2)[C@H](C)[C@@H](O[C@@H]2O[C@H](C)C[C@H](N(C)C)[C@H]2O)[C@](C)(OC)C[C@@H](C)C(=O)[C@H](C)[C@H]2[C@H](SCCn3cncn3)C(=O)O[C@@]21C [Example 18]
MIC [1]: 32 µg/mL (≈ 35.6 µM)
MIC [2]: >=32 μg/ml
MIC [3]: 1 µg/mL (≈ 1.11 µM)
MIC [4]: <=0.06 μg/ml
MIC [5]: 2 µg/mL
MIC [6]: 4 µg/mL
MIC [7]: 2 µg/mL
MIC [8]: 2 µg/mL
MIC [9]: <=0.06 μg/ml
MIC [10]: >32 µg/mL

Continued, values first:

MIC [1]: >32 µg/mL
MIC [2]: >32 µg/mL
MIC [3]: 2 µg/mL (≈ 2.01 µM)
MIC [4]: 0.125 µg/mL
MIC [5]: >32 µg/mL
MIC [6]: >32 µg/mL
MIC [7]: >32 µg/mL
MIC [8]: 16 µg/mL
MIC [9]: 0.125 µg/mL (≈ 0.126 µM)
MIC [10]: >32 µg/mL
SMILES: CC[C@H]1OC(=O)[C@H](C)[C@@H](O[C@H]2C[C@@](C)(OC)[C@@H](O)[C@H](C)O2)[C@H](C)[C@@H](O[C@@H]2O[C@H](C)C[C@H](N(C)C)[C@H]2O)[C@](C)(OC)C[C@@H](C)C(=O)[C@H](C)[C@H]2[C@H](SCC(=O)c3ccc(N(CC)CC)cc3)C(=O)O[C@@]21C [Example 26]

MIC ([1]; ATCC25922, read-out: MIC): > 32 µg/mL
MIC ([2]; read-out: MIC): 0.25 µg/mL (≈ 0.308 µM)
MIC ([3]; ATCC29213, read-out: MIC): 0.25 µg/mL (≈ 0.308 µM)
MIC ([4]; read-out: MIC): ≤ 0.06 µg/mL
MIC ([5]; read-out: MIC): ≤ 0.06 µg/mL
MIC ([6]; read-out: MIC): 0.5 µg/mL
MIC ([7]; read-out: MIC): 2 µg/mL
MIC ([8]; read-out: MIC): 1 µg/mL
MIC [9, 11]: ≤ 0.06 µg/mL
MIC [10, 11]: 16 µg/mL (≈ 19.7 µM)
SMILES: CC[C@H]1OC(=O)[C@H](C)C(=O)[C@H](C)[C@@H](O[C@@H]2O[C@H](C)C[C@H](N(C)C)[C@H]2O)[C@](C)(OC)C[C@@H](C)C(=O)[C@H](C)[C@H]2N(CCCCn3cnc(-c4cccnc4)c3)C(=O)O[C@]12C [Telithromycin, reference compound]

MIC [1]: 32 µg/mL (≈ 33.1 µM)
MIC [2]: >32 µg/mL
MIC [3]: 1 µg/mL (≈ 1.03 µM)
MIC [4]: <=0.06 μg/ml
MIC [5]: 4 µg/mL
MIC [6]: 4 µg/mL
MIC [7]: 4 µg/mL
MIC [8]: 4 µg/mL
MIC [9]: <=0.06 μg/ml
MIC [10]: >32 µg/mL
SMILES: CC[C@H]1OC(=O)[C@H](C)[C@@H](O[C@H]2C[C@@](C)(OC)[C@@H](O)[C@H](C)O2)[C@H](C)[C@@H](O[C@@H]2O[C@H](C)C[C@H](N(C)C)[C@H]2O)[C@](C)(OC)C[C@@H](C)C(=O)[C@H](C)[C@H]2[C@H](SCC(=O)c3ccc4c(c3)OCO4)C(=O)O[C@@]21C [Example 29]

MIC [1]: >32 µg/mL
MIC [2]: >32 µg/mL
MIC [3]: 1 µg/mL (≈ 1.02 µM)
MIC [4]: <=0.06 μg/ml
MIC [5]: 4 µg/mL
MIC [6]: 4 µg/mL
MIC [7]: 8 µg/mL
MIC [8]: 8 µg/mL
MIC [9]: <=0.06 μg/ml
MIC [10]: >32 µg/mL
SMILES: CC[C@H]1OC(=O)[C@H](C)[C@@H](O[C@H]2C[C@@](C)(OC)[C@@H](O)[C@H](C)O2)[C@H](C)[C@@H](O[C@@H]2O[C@H](C)C[C@H](N(C)C)[C@H]2O)[C@](C)(OC)C[C@@H](C)C(=O)[C@H](C)[C@H]2[C@H](SCC(=O)c3ccc(OC)cc3OC)C(=O)O[C@@]21C [Example 27]

MIC [1]: >32 µg/mL
MIC [2]: 16 µg/mL (≈ 16.4 µM)
MIC [3]: 2 µg/mL (≈ 2.04 µM)
MIC [4]: 0.25 µg/mL
MIC [5]: 4 µg/mL
MIC [6]: 4 µg/mL
MIC [7]: 8 µg/mL
MIC [8]: 16 µg/mL
MIC [9]: 0.125 µg/mL (≈ 0.128 µM)
MIC [10]: 8 µg/mL (≈ 8.18 µM)
SMILES: CC[C@H]1OC(=O)[C@H](C)[C@@H](O[C@H]2C[C@@](C)(OC)[C@@H](O)[C@H](C)O2)[C@H](C)[C@@H](O[C@@H]2O[C@H](C)C[C@H](N(C)C)[C@H]2O)[C@](C)(OC)C[C@@H](C)C(=O)[C@H](C)[C@H]2[C@H](SCC(=O)c3csc4ccccc34)C(=O)O[C@@]21C [Example 28]
